Data on 1 molecule can be found in publication PMC8176444 (Molecular Biology Reports, 2021).

The target of the test is T1, angiotensin-converting enzyme (ACE) (Ovis aries, UniProt A0ACI6QSL6).
T1 sequence (A0ACI6QSL6 34-1310): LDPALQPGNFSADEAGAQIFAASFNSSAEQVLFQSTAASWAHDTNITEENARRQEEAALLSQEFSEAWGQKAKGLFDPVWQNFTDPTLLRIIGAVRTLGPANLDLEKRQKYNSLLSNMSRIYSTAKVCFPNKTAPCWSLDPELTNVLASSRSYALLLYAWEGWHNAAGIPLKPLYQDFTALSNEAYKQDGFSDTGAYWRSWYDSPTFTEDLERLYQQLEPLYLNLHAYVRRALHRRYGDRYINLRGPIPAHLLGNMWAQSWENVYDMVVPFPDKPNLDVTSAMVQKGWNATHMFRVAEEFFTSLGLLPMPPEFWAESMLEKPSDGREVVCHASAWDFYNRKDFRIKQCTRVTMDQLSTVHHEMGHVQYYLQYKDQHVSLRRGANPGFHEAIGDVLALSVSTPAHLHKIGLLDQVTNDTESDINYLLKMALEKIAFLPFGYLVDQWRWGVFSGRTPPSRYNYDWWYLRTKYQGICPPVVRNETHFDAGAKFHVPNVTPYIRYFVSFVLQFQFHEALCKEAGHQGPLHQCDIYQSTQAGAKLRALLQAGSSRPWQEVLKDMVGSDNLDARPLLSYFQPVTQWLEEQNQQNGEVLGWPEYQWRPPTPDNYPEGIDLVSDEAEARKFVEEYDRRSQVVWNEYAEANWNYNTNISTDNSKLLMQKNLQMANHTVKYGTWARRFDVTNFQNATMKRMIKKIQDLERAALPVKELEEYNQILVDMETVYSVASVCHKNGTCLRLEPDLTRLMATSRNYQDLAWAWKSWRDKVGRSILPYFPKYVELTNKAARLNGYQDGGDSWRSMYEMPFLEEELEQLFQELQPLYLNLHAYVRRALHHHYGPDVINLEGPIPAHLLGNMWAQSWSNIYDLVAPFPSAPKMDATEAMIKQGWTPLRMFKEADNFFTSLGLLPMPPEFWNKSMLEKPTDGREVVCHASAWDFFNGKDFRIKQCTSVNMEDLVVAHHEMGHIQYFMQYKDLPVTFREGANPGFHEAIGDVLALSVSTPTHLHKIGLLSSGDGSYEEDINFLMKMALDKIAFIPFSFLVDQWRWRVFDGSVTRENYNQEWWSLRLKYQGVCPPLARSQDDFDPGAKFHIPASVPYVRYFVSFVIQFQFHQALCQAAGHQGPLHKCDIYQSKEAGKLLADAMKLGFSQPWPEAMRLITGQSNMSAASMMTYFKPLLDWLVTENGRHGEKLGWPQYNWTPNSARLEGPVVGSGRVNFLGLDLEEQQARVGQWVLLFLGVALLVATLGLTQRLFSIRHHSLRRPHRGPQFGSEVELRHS
The test is described as follows: spectrophotometric FAPGG hydrolysis assay at […] nm. Format: biochemical.

For the molecule `C[C@H](CS)C(=O)N1CCC[C@H]1C(=O)O` [captopril], the affinity corresponds to a Ki of 0.39 nM.
